Measurements reported in patent US5516768A, “Uncompetitive inhibition of steroid and 5α-reductose” (priority 1990, dated 1996).

Key:
steroid 5-α-reductase = experiment: kinetic mechanism of inhibition versus testosterone (competitive / uncompetitive); assay type: biochemical; conditions: competitive = binds E-NADPH; uncompetitive = binds E-NADP+
Source text: Dead-end inhibitors of bisubstrate enzymes which follow ordered kinetic mechanisms can associate to one or more existing enzyme species. With steroid 5-α-reductase, enzyme forms to which such a steroidal-inhibitor might bind would include free enzyme, E, and enzyme binary complexes with cofactor, E-NADPH and E-NADP^+.
The response of the velocity of enzyme catalysis with varying concentrations of testosterone in the presence of an inhibitor that binds to the E-NADPH complex can be described by equation 1; this model is denoted as competitive inhibition versus the variable substrate, in this case testosterone.
v=VM A/[Ka (1+I/Kis)+A] (1)
v=VM A/[Ka +A(1+K/Kii)] (2)
The results of these analyses are typically expressed in double reciprocal plots: 1/velocity versus 1/[testosterone].

[1] = system: involuted ventral prostate; experiment: testosterone induced regrowth of the involuted ventral prostate of castrated male rats; assay type: in vivo, rat; conditions: castrated + testosterone implant, 10 days, N = 5 rats/group
Protocol: Certain combinations of the invention were tested for their in vivo potency in inhibiting steroid 5-α-reductase activity.
(§1) When male rats are castrated and allowed to go untreated for 1 month, the ventral prostates involutes to approximately 10% of its original total cell number. If exogeneous testosterone is given to these castrated rats to restore the physiological serum level of testosterone, the involuted ventral prostate rapidly proliferates restoring its original cell content within 2-3 weeks. Using the ability to inhibit this testosterone induced regrowth of the rat ventral prostate, the efficacy and potency of twice daily oral administering of the "competitive" inhibitor and the "uncompetitive" inhibitor individually and in combination were compared.
(§2) To perform these experiments, a total of 50 male Sprague Dawley rats (From Harlan Sprague-Dawley, Inc.) of 250-300 gm starting weight were used. Forty-five of these animals were castrated and allowed to go untreated for 1 month to produce maximal ventral prostatic and seminal vesicle involution. After this 1 month period, 40 of the 45 castrated animals were implanted subcutaneously in the flank with a 2.5 cm long testosterone filled silastic capsule. The 50 animals were set up in 10 groups as follows:
(§3) The animals were administered the 5-α-reductase inhibiting compounds twice a day (BID) for 10 consecutive days. This test compound was dissolved in propylene glycol and diluted in normal saline. At the end of the treatment period blood was collected from the animals and then they were sacrificed, the ventral prostrates were excised and weighed, and DHT levels were measured by the following procedure.
Prostate tissue was excised, trimmed, weighed, minced and washed with phosphate buffer. The tissue then was homogenized in phosphate buffer and extracted by addition of ethyl acetate and mixing on an orbital mixer for forty-five minutes. The ethyl acetate was evaporated, the residue was reconstituted in ethanol, and was centrifuge filtered using […] filter paper. The components then were separated using reverse-phase HPLC collecting the DHT fraction. The fraction was reduced to dryness and reconstituted in standard commercial DHT assay buffer. DHT levels then were measured using standard techniques such as radioimmunoassay.

seminal vesicle = experiment: testosterone induced regrowth of the involuted seminal vesicle of castrated male rats; assay type: in vivo, rat; conditions: castrated + testosterone implant, 10 days, N = 5 rats/group
Source text: as §1, §2, §3

[2] = system: involuted ventral prostate; conditions: Stoner, et al. (1987) Endocrinology 120:774; cited from earlier work

Row | mechanism of inhibition versus testosterone (steroid 5-α-reductase) | SMILES | Ventral Prostate DNA (μg/gland) ([1]; BID 12.5 mg/kg oral) | Ventral Prostate weight (mg/gland) ([1]; BID 12.5 mg/kg oral) | Ventral Prostate DNA (μg/gland) ([1]; BID 25 mg/kg oral) | Ventral Prostate weight (mg/gland) ([1]; BID 25 mg/kg oral) | Ventral Prostate DNA (μg/gland) ([1]; BID 50 mg/kg oral) | Ventral Prostate weight (mg/gland) ([1]; BID 50 mg/kg oral) | Seminal Vesicle DNA (μg/gland) (seminal vesicle; BID 12.5 mg/kg oral) | Seminal Vesicle weight (mg/gland) (seminal vesicle; BID 12.5 mg/kg oral) | Seminal Vesicle DNA (μg/gland) (seminal vesicle; BID 25 mg/kg oral) | Seminal Vesicle weight (mg/gland) (seminal vesicle; BID 25 mg/kg oral) | Seminal Vesicle DNA (μg/gland) (seminal vesicle; BID 50 mg/kg oral) | Seminal Vesicle weight (mg/gland) (seminal vesicle; BID 50 mg/kg oral) | plateau dose-response effect on prostate weight reported in other studies [2]
1 | competitive inhibitor | CC(C)(C)NC(=O)[C@H]1CC[C@H]2[C@@H]3CC[C@H]4NC(=O)C=C[C@]4(C)[C@H]3CC[C@]12C [compound A, N-t-butyl-5-α-androst-1-ene-4-aza-17β-carboxamide-3-one] | 289 ± 17 μg/gland | 71 ± 11 mg/gland | 290 ± 25 μg/gland | 55 ± 7 mg/gland | 284 ± 19 μg/gland | 62 ± 7 mg/gland | 692 ± 51 μg/gland | 118 ± 5 mg/gland | 708 ± 72 μg/gland | 108 ± 10 mg/gland | 698 ± 39 μg/gland | 108 ± 7 mg/gland | plateau dose-response effect
2 | uncompetitive inhibitor | CC(C)(C)NC(=O)[C@H]1CC[C@H]2[C@@H]3CC=C4C=C(C(=O)O)CC[C@]4(C)[C@H]3CC[C@]12C [compound C, N-t-butyl-androst-3,5-diene-17β-carboxamide-3-carboxylic acid] | 359 ± 36 μg/gland | 154 ± 22 mg/gland | 383 ± 29 μg/gland | 143 ± 17 mg/gland | 316 ± 52 μg/gland | 147 ± 15 mg/gland | 851 ± 47 μg/gland | 158 ± 15 mg/gland | 890 ± 58 μg/gland | 170 ± 19 mg/gland | 855 ± 63 μg/gland | 159 ± 20 mg/gland | –

Row | SMILES | mechanism of inhibition versus testosterone (steroid 5-α-reductase) | Ventral Prostate DNA (μg/gland) ([1]; BID 12.5 mg/kg oral) | Ventral Prostate weight (mg/gland) ([1]; BID 12.5 mg/kg oral) | Ventral Prostate DNA (μg/gland) ([1]; BID 25 mg/kg oral) | Ventral Prostate weight (mg/gland) ([1]; BID 25 mg/kg oral) | Ventral Prostate DNA (μg/gland) ([1]; BID 50 mg/kg oral) | Ventral Prostate weight (mg/gland) ([1]; BID 50 mg/kg oral) | Seminal Vesicle DNA (μg/gland) (seminal vesicle; BID 12.5 mg/kg oral) | Seminal Vesicle weight (mg/gland) (seminal vesicle; BID 12.5 mg/kg oral) | Seminal Vesicle DNA (μg/gland) (seminal vesicle; BID 25 mg/kg oral) | Seminal Vesicle weight (mg/gland) (seminal vesicle; BID 25 mg/kg oral) | Seminal Vesicle DNA (μg/gland) (seminal vesicle; BID 50 mg/kg oral) | Seminal Vesicle weight (mg/gland) (seminal vesicle; BID 50 mg/kg oral) | plateau dose-response effect on prostate weight reported in other studies [2]
3 | CC(C)N(C(=O)[C@H]1CC[C@H]2[C@@H]3CC=C4C=C(C(=O)O)CC[C@]4(C)[C@H]3CC[C@]12C)C(C)C [compound B, N,N-diisopropyl-androst-3,5-diene-17β-carboxamide-3-carboxylic acid] | uncompetitive inhibitor | – | – | – | – | – | – | – | – | – | – | – | – | –
